Experimental data taken from patent publication US20220400703A1, “FORMULATIONS FOR TREATMENT OF VIBRIO INFECTIONS” (ARIZONA BOARD OF REGENTS ON BEHALF OF THE UNIVERSITY OF …, priority 2019, published 2022).
Values joined by “and” are separate entries in the source; they are usually repeats but may differ in a detail not shown here. Equal entries are not always repeated. “Also recorded” adds a separate entry of the source.

How the values were obtained:
[1] = tested on: VPAHPND (13-028/A3), AHPND-causing Vibrio parahaemolyticus; experiment: Paper disk diffusion assay; assay type: cell-based; details: mean ± SD; for Average diameter of inhibitory zone (mm) CNE 1/16: extract concentration 1/16 (v/v); for Average diameter of inhibitory zone (mm) CNE 1/16 / Average diameter of inhibitory zone (mm) CNE ¼ / Average diameter of inhibitory zone (mm) CNE ½ / Average diameter of inhibitory zone (mm) CNE ⅛: ND: not detected, <7 mm = no antimicrobial activity; for Average diameter of inhibitory zone (mm) CNE ¼: extract concentration ¼ (v/v); for Average diameter of inhibitory zone (mm) CNE ½: extract concentration ½ (v/v), 2 μL on paper disk, TSA+, 28° C., 24 hr; for Average diameter of inhibitory zone (mm) CNE ⅛: extract concentration ⅛ (v/v)
Experimental: (§1) VPAHPND (13-028/A3) was revived from glycerol stock kept in −80 degrees C. in Aquaculture Pathology Laboratory following a previous publication (Han et al., 2015). Briefly, 800 mL of Tryptic Soy Broth (TSB) containing 2% NaCl (TSB+) medium was prepared and autoclaved. The bacterial stock was thawed on ice and briefly vortexed before transferring 250 μl of the bacterial culture to 5 ml TSB+ in a 50 ml flask. The flask was incubated at 28 degrees C. in a shaker incubator (CORNING, Model LSE) (120 rpm) for 2 h. After the incubation, the broth was transferred into 50 ml TSB+ in a 250 ml flask before incubating at 28 degrees C. in a shaker incubator (120 rpm) for 2 h. After 2 h., the bacterial culture was mixed with 300 ml TSB and incubated for 24 h at 28 degrees C. After 24 h, the optical density (OD) of the culture was measured at 600 nm. Under these culture conditions, the OD values should exceed 2.8. The broth was diluted to 1×10^7 CFU/ml based on the OD reading. A 10-fold serial dilution of the bacterial culture was prepared and the live bacterial count upon overnight growth was determined by plating the culture on Tryptic Soy Agar (TSA) containing 2% NaCl (TSA+) plates.
The antibacterial activities of the NEs were tested using a paper disk diffusion assay following a previously published method with some modifications (Mith et al., 2014). Briefly, the extracts were diluted with fish oil (NE01-NE013) or DMSO (NE14 to NE18) at the following concentrations: 1:1, 1:2, 1:4, and 1:8. The VPAHPND (13-028/A3) culture lawns were created on TSA+plates by thoroughly streaking the culture over the entire surface of the plate with a cotton swab. Meanwhile, 2 μL of each concentration of the NEs was soaked on to a paper disk for 15 min before placing in the center of the bacteria inoculated TSA+plates. Fish oil and DMSO were used as controls. For each dilution of the NE two replicates were done. The plates were then incubated at 28° C. for 24 hr. The efficacy of the extract in inhibiting bacterial growth was determined by measuring the diameter of clear zones for each concentration to the nearest millimeter (mm). The diameter of the inhibitory zone <7 mm was considered as having no antimicrobial activity (Mith et al., 2014). The experiments were repeated four times for all 18 NEs, and the average was taken to calculate the diameter of the inhibitory zone.

[2] = tested on: Vibrio parahaemolyticus (Strain A3); experiment: Minimum inhibitory concentration (MIC) assay in liquid culture (OD600 and colony count); assay type: cell-based; details: for OD600: 24 hr; for MIC assay results: effective concentration (Example 1): Example 1, liquid culture; for MIC (Example 2): TSB+ liquid culture, OD600 and colony count, 24 h and 48 h; for Extract concentration at which bacterial count is zero / no survivors: viable colony count at 48 h on TSA+ plates
Experimental: Absorbance (OD600) and total colony count (upon plating overnight culture grown in the presence of natural extracts) were employed for screening.
as §1
Initially extracts were diluted up to 50% with diluent fish oil, then a serial dilution of extracts was prepared Concentrations of extracts range between [0.3-0.0937% (v/v)], which was prepared in TSB+ (Tryptic soy broth) medium. The culture medium TSB+ (2 ml) containing NEs was inoculated with 100 μL (approx. 1×10^7 CFU/mL) of an overnight culture of the pathogen and briefly mixed by vortexing before incubating at 28 degrees C. The OD600 values was recorded at 12, 24 and 48 h post-incubation (FIG. 9). In addition, at each time point and for each concentration of the NEs, aliquots of bacterial suspension were inoculated on TSA+plate before incubating overnight at 28 degrees C. The MIC for each NE was determined by recording OD600 values and taking bacterial count. For each NE, the MIC assay was repeated three times on different days, and the average OD600 value was taken to determine the MIC for each concentration of a corresponding NE.

VPAHPND cells = experiment: Scanning electron microscopy of NE treated VPAHPND cells; assay type: cell-based, Vibrio parahaemolyticus; details: sub-inhibitory concentration of extract, 24 hr incubation
Experimental: The effect of NEs on bacterial cells was determined by culturing VPAHPND in medium containing NEs and examining the cells under a scanning electron microscope (SEM). The subinhibitory concentration of extracts used in the medium was MIC. The control treatment was VPAHPND grown in the presence of fish oil. Samples were fixed by following a protocol described by Lv et al. (2011) and McQuade et al. (2012) with some modifications. Briefly, 25 μl of 8% glutaraldehyde solution (Electron Microscopy Sciences, Hatfield, Pa.) was added to 200 μl of the overnight culture of bacteria. After 40 minutes of incubation at room temperature, samples were washed three times with 1× phosphate-buffered saline (PBS, pH 7.0). Subsequently, samples were washed with water and stained with 1% osmium tetroxide (Ted Pella, Inc., Redding, Ariz.). Finally, samples were washed in water and dehydrated in a series of ethanol solutions with concentrations ranging from 30% to 90% (v/v). The slides with fixed bacterial cells were mounted, sputter-coated in gold under vacuum, and examined using a […] field emission scanning electron microscope (ANATECH, USA).

[3] = tested on: AHPND-causing Vibrio parahaemolyticus; experiment: AHPND bioassay: NE05 in diet, immersion challenge (clinical signs, survival, mortality); assay type: in vivo, Penaeus vannamei; details: for Percent survival: 7 days post-challenge, three independent experiments
Experimental: The efficacy of NE05 in preventing AHPND was evaluated by using an in vivo assay. The NE05 was mixed with a commercially pelleted shrimp diet at concentrations of 20% and 10% (v/w). Commercial diets containing 20% and 10% fish oil were used as controls. The feed was prepared using a standard feed maker (CORNING, Model LSE) and dried in a chemical hood for 24 h at room temperature. The feed was coated with fish oil dried for an additional 12 h to prevent the smell and increase palatability.
Ten 37 L glass tanks were used in this study. Seawater was prepared following a SOP used in Aquaculture Pathology Laboratory. Approximately 800 g of sea salt (Marinex, Baltimore, Md.) was mixed with 30 L of tap water to get 20-25 ppt of salinity. After the marine salt was dissolved, salinity was checked using a refractometer (SPER SCIENTIFIC, Model #300011). The salinity level of the water was adjusted by adding water until the range needed for the study was reached (20-25 ppt). Throughout the experiment, the room temperature was maintained at 29±2 degrees C. using a heater. Before starting the bioassay, the tanks were held for two days without any animal to equilibrate the water temperature to that of the room. The water temperature was maintained at 29±2 degrees C. Each tank was equipped with an air pump having an air capacity of 2.5 liters/min connected to two air stones. One air stone was directly immersed into the tank, and the other one was connected to the filters. Disinfected weight was kept above each air stone. The heater was kept inside the room during the experiment.
(§2) Specific Pathogen Free shrimp (P. vannamei) (avg. weight 1-2 g) were stocked at a density of 10 shrimp/tank. In total there were two treatments and two controls: shrimp fed diet containing 20% NE05, 10% NE05, a positive and a negative control (shrimp fed diet containing fish oil). Each treatment and control had two replicates. Animals in all treatments except the negative control were subjected to an immersion challenge with V. parahaemolyticus. In the negative control tanks, sterilized TSB+ medium was added instead of bacterial suspension. Throughout the experiment, shrimps were fed corresponding diets daily at 5% of their body weight. The experiments were repeated three times. On day 6 post-feeding of the experimental diets, shrimps were challenged with V. parahaemolyticus at a dose of 10^6 CFU/ml (500 ml of V. parahaemolyticus culture grown for 24 h, OD600 of 5). After the bacterial challenge, tanks were monitored several times a day, and mortalities were recorded, and dead shrimps were removed immediately. Hepatopancreas tissue from moribund shrimp was dissected, half of the tissue was preserved in Davidson's fixative for histopathology, while the remaining half of hepatopancreas was stored at −20 degrees C. for PCR detection of V. parahaemolyticus. […] At the termination of the bioassay, average mortality for each treatment was calculated, and one-way ANOVA was performed to determine any significant difference among different treatments. A (p-value <0.05) between treatments was considered significant.

[4] = tested on: AHPND-causing Vibrio parahaemolyticus; experiment: Histopathology (H&E) of hepatopancreas of shrimp from the AHPND bioassay; assay type: in vivo, Penaeus vannamei
Description: as §2
Moribund shrimp were fixed in Davidson's alcohol-formalin-acetic acid (AFA). The samples were processed, embedded in paraffin, and sectioned ([…]) following a standard protocol (Lightner, 1996). The sections were stained with hematoxylin and eosin (H&E) and examined using a light microscope for histological lesions of AHPND (Tran et al., 2013).

| Molecule | MIC assay results: effective concentration (Example 1) [2] | MIC (Example 2) [2] | Extract concentration at which bacterial count is zero / no survivors [2] | Bacterial cell morphology under SEM (VPAHPND cells) | Average diameter of inhibitory zone (mm) CNE 1/16 [1] | Average diameter of inhibitory zone (mm) CNE ¼ [1] | Average diameter of inhibitory zone (mm) CNE ½ [1] | Average diameter of inhibitory zone (mm) CNE ⅛ [1] | other results |
| --- | --- | --- | --- | --- | --- | --- | --- | --- | --- |
| Doxycycline Hyclate [reference compound] |  |  |  |  |  |  |  |  | Average diameter of inhibitory zone (mm), antibiotic reference standard ([1]; Doxycycline Hyclate 10 μg): 24.43±0.57 mm |
| CC(C)=CCCC(C)=CC=O [NE01, Citral] | 0.015 v/v % | 0.15 v/v % | 0.15 % (v/v) | a few irregular wrinkled cells but also had a lot of intact cells | 7.48 ± 0.42 mm | 12.53 ± 0.50 mm | 17.75 ± 1.4 mm | 9.36 ± 0.58 mm | OD600 ([2]; extract concentration 0.0983%): 2.5; OD600 ([2]; extract concentration 0.15% (v/v)): zero; Bacterial count ([2]; 48 h, extract concentration 0.0983% (v/v)): 2.5×10^9 CFU/ml |
| Cc1ccc(C(C)C)cc1O [NE03, Cavacrol] | 0.007 v/v % | 0.075 v/v % | 0.075 % (v/v) | non-intact lysed cells with possible leaking out of cytoplasmic constituents; also recorded: disruption of cell surface and leaking of cytoplasmic components; also recorded: affected bacterial cell wall resulting in its disruption and leaking of intracellular components | 8.53 ± 0.16 mm | 16 ± 0.77 mm | 20.51 ± 0.97 mm | 13.53 ± 0.42 mm |  |
| O=C/C=C/c1ccccc1 [NE05, Trans Cinnamaldehyde] | 0.002 v/v % | 0.02 v/v % | 0.02 % (v/v) | extensive cell wall damage, and possible leaking out of intracellular components; also recorded: disruption of cell surface and leaking of cytoplasmic components; also recorded: affected bacterial cell wall resulting in its disruption and leaking of intracellular components | 9.36 ± 0.32 mm | 18.66 ± 0.98 mm | 26±1.8 mm | 14.03 ± 0.80 mm | Mortality by day 3 ([3]; diet containing NE05-10%): 85%; Time at which mortality began post-challenge ([3]; diet containing NE05-10%): 10 h; Percent survival ([3]; diet containing NE05-10%): 15%; Mortality during the first 24 h post-challenge ([3]; diet containing NE05-20%): did not show mortality; Percent survival ([3]; diet containing NE05-20%): 100% and 93%; Mortality by day 2 ([3]; diet containing NE05-20%, thereafter no mortality): 4%; Gross clinical signs of AHPND ([3]; shrimp fed diet containing NE05 at 10%, immersion challenge): appeared clinically similar to the animals fed commercial diet; also recorded: HP appeared pale and gut empty; Histopathology of hepatopancreas ([4]; NE05-10% treatment, 24 h post-challenge): Mild sloughing of epithelial cells in hepatopancreatic tubule; Histopathology of hepatopancreas ([4]; NE05-10% treatment, 48 h post-infection): hallmark of AHPND infection; Histopathology of hepatopancreas ([4]; NE05-20% treatment, 24 & 48 h post-challenge): did not show any lesions that are considered pathognomonic of AHPND; also recorded: showed no lesions that are pathognomonic of AHPND; H&E histological section of HP tissue (FIGS. 19E-19F) ([4]; diet containing NE05-10%, challenged with AHPND): Terminal phase lesions displaying sloughing of necrotic HP tubule epithelial cells; H&E histological section of HP tissue (FIGS. 19G-19H) ([4]; diet containing NE05-20%, challenged with AHPND): Hepatopancreatic tubule appear similar to healthy animals |
